Results: publication PMC7311426, “An amphipathic peptide with antibiotic activity against multidrug-resistant Gram-negative bacteria” (Nature Communications, 2020)
Converted amounts (≈) assume the structure as drawn. Like-named read-outs stand apart in the source and are kept apart here. Residues, ends and D or L forms follow the SMILES beside them.

Legend:
[1] = tested on: human erythrocytes (HRBC); assay type: cell-based
[2] = 7-day iv MTD toxicity; settings: minipig
[3] = tested on: human primary hepatocytes; assay: Cell viability, human primary hepatocytes (Eurofins Panlabs); assay type: cell-based
Protocol: Cell viability of human primary hepatocytes against AA139 was assessed by fluorometric readout of Alamar Blue following 24 h incubation at 37 °C of human plateable cryopreserved hepatocytes and AA139 as an 8-point dose response, 0.1–300 μM, as described by Nociari et al.[41]. Cell viability was calculated as a percentage of the control cells and plotted versus concentration using Prism 8 Software. The IC50 value was determined by non-linear regression analysis of the concentration–response curve using the Hill equation. Assay was performed by Eurofins Pharma Discovery Services (Panlabs), St Charles, MO, USA, study number 100049990. Source data are provided as a source data file.

[4] = tested on: HEK-293 human embryonic kidney cells; assay: in vitro
[5] = tested on: HK-2 human kidney proximal tubule cells; assay: in vitro
[6] = tested on: HepG2 liver hepatocellular carcinoma cells; assay: in vitro
[7] = in vitro; settings: human
[8] = in vivo; settings: mouse, ip, Cross species PK, concentration (Fig 6 source data)
[9] = mouse IP
[10] = in vivo; settings: both, mouse, plasma, inhaled or intranasal; for AUC(0-t) / Cmax: Plasma, mice
[11] = tested on: E. coli (AID#172 & ATCC 25922); settings: E. coli ATCC 25922; quality control range printed beside agar dilution MIC; cited from earlier work
Text: Supplement 41467_2020_16950_MOESM9_ESM.xlsx, sheet "Supp table 9" | column: Agar (Noble) Dilution MIC Results for AA139 and Comparators

[12] = tested on: E. coli ATCC 25922; assay: NPN uptake assay, outer membrane permeabilization; assay type: cell-based, Escherichia coli; settings: Prism nonlinear fit, One site - specific binding with Hill slope, Bmax = 100
[13] = tested on: E. coli K12 MG1655; assay: ATP release, BacTiter-Glo luminescence; assay type: cell-based, Escherichia coli; settings: 60 min
Protocol: ATP was measured using the BacTiter-Glo^TM Microbial Cell Viability Assay (Promega) following the manufacturer’s instructions. The assay was performed for three biological replicates at 37 °C, with luminescence recorded using a Tecan Infinite M1000 Pro plate reader. The fold reduction of ATP was calculated as: Fold reduction ATP = 1 − (Ltreat − Lmedia/Lcontrol − Lmedia); where Ltreat is the luminescence of treated cells, Lmedia is the luminescence of CAMHB without cells, and Lcontrol is the luminescence of untreated cells. Resultant graphs show mean (n = 7) and std error for each data point, prepared in Prism 8. DMSO was included as a control as piperacillin was solubilized in DMSO, with final assay concentration of 2.5%.

[14] = 5 mg kg-1/day, Day 1, 5 mg kg-1/day, 2 hour daily inhalation
[15] = 5 mg kg-1/day, Day 7, 5 mg kg-1/day, inhalation
[16] = 40 mg kg-1/day, Day 1, 40 mg kg-1/day, inhalation

In the case of `CC(C)[C@@H]1NC(=O)[C@H](Cc2ccc(O)cc2)NC(=O)[C@H](Cc2c[nH]c3ccccc23)NC(=O)[C@@H](NC(=O)[C@H](Cc2ccccc2)NC(=O)CN)CSSC[C@@H](C(=O)N[C@@H](CC(N)=O)C(=O)O)NC(=O)[C@H](CCCNC(=N)N)NC(=O)[C@H](CCCNC(=N)N)NC(=O)[C@H](Cc2ccc(O)cc2)NC(=O)[C@@H]2CSSC[C@H](NC1=O)C(=O)N[C@@H](C)C(=O)N[C@@H](CCCNC(=N)N)C(=O)N[C@@H](CCCNC(=N)N)C(=O)N[C@@H](CC(N)=O)C(=O)NCC(=O)N[C@@H](C)C(=O)N[C@@H](CCCNC(=N)N)C(=O)N[C@@H](C(C)C)C(=O)N2` [AA139] (HELM PEPTIDE1{G.F.C.W.Y.V.C.A.R.R.N.G.A.R.V.C.Y.R.R.C.N}$PEPTIDE1,PEPTIDE1,3:R3-20:R3|PEPTIDE1,PEPTIDE1,7:R3-16:R3$$$V2.0), the “Heamolysis HC10, Mean” value [1] is reported as >300 µg/mL, the “Heamolysis HC10” value ([1]; red cells of human, 3 h) is reported as >300 µg/mL and the MTD at 168 h ([2]; in vivo, iv) is reported as 10 mg/kg. For the same compound, the AUC(0-inf) ([2]; in vivo, iv, 10 mg/kg) was 36700 ng·h/mL, the Cmax ([2]; in vivo, iv, 10 mg/kg) was 8700 ng/mL and the “Target organ toxicity, kidney” value ([2]; 20, 25, or 30 mg kg^−1 per day by 2 h i.v. infusion for 7 days, dose-related severity) was “tubular nephropathy present”. For the same compound, the “IC50, human primary hepatocytes” value ([3]; 24 h) was 330 µg/mL (≈ 129 µM), the “Fold higher hepatocyte IC50 over antibacterial activity against E. coli” value ([3]; IC50 / MIC) was 2400 fold and the “Fold higher hepatocyte IC50 over antibacterial activity against K. pneumoniae” value ([3]; IC50 / MIC) was 300 fold. The “CC50 HEK293, Mean” value [4] was >300 µg/mL, the “CC50 HK2” value [5] was >255 µg/mL and the “CC50 HK2, Mean” value [5] was >250 µg/mL. The “CC50 HepG2” value [6] was >300 µg/mL, the “CC50 HepG2, Mean” value [6] was >300 µg/mL and the CC50 at 24 h ([7]; HEK-293 cells) was > 300 µg/mL. The CC50 at 24 h ([7]; HK-2 cells) was > 250 µg/mL, the CC50 at 24 h ([7]; HepG2 cells) was > 300 µg/mL and the level at 1 h ([8]; replicate 1) was 5200 ng/mL. It also gave a level at 1 h ([8]; replicate 2) of 5250 ng/mL, a level at 1 h ([8]; replicate 3) of 5230 ng/mL and a level at 2 h ([8]; replicate 1) of 4240 ng/mL. It also gave a level at 2 h ([8]; replicate 2) of 4550 ng/mL, a level at 2 h ([8]; replicate 3) of 4140 ng/mL and a level at 4 h ([8]; replicate 1) of 1820 ng/mL. It also gave a level at 4 h ([8]; replicate 2) of 1560 ng/mL, a level at 4 h ([8]; replicate 3) of 1370 ng/mL and a level at 8 h ([8]; replicate 1) of 570 ng/mL. For the same compound, the level at 8 h ([8]; replicate 2) was 472 ng/mL, the level at 8 h ([8]; replicate 3) was 682 ng/mL and the “Cross species PK, concentration (Fig 6 source data)” value (from here on “Cross species PK, concentration”) ([9]; time 0.08 h, replicate 1) was 6190. The “Cross species PK, concentration” value ([9]; time 0.08 h, replicate 3) was 3520, the “Cross species PK, concentration” value ([9]; time 0.5 h, replicate 1) was 5370 and the “Cross species PK, concentration” value ([9]; time 0.5 h, replicate 2) was 4790. The “Cross species PK, concentration” value ([9]; time 0.5 h, replicate 3) was 6580, the Tmax ([10]; 5 mg kg-1/day) was 18 min and the AUC(0-t) [10, 14] was 262 ng·h/mL. It also gave an AUC(0-t) [10, 15] of 85 ng·h/mL, a Cmax [10, 14] of 122 ng/mL and a Cmax [10, 15] of 64 ng/mL. The Tmax ([10]; 20 mg kg-1/day) was 18 min, the Cmax ([10]; 20 mg kg-1/day, Day 1, 20 mg kg-1/day, inhalation) was 952 ng/mL and the Cmax ([10]; 20 mg kg-1/day, Day 7, 20 mg kg-1/day, inhalation) was 467 ng/mL. It also gave a Tmax ([10]; 40 mg kg-1/day) of 18 min, an AUC(0-t) [10, 16] of 4540 ng·h/mL and a Cmax [10, 16] of 2460 ng/mL.

In the case of `C[C@H]1COc2c(N3CCN(C)CC3)c(F)cc3c(=O)c(C(=O)O)cn1c23` [LEV, levofloxacin, reference compound], the “MIC QC range” value [11] is listed as 0.008 to 0.06 µg/mL.

In the case of `C[C@@H](O)[C@H]1C(=O)N2C(C(=O)O)=C(S[C@@H]3CN[C@H](C(=O)N(C)C)C3)[C@H](C)[C@H]12` [Meropenem, meropenem, reference compound], the “h (Hill slope, best-fit value)” value [12] is reported as 0.3497.

For colistin, the “Concentration at which maximum ATP release is reached” value [13] was “at its MIC”.
